Experimental data published in ChEMBL document CHEMBL1201861, “Genomics of Drug Sensitity in Cancer screening data, Wellcome Trust Sanger Institute”.

What was measured:
Experiment in all cases: cells
CTV-1 = type: functional, cell-based, Homo sapiens; conditions: Homo sapiens, CTV-1;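 note: growth inhibition of the cell line, read out with a cell viability assay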
Description: SANGER: Inhibition of human CTV-1 cell growth in a cell viability assay.

DOHH-2 = type: functional, cell-based, Homo sapiens; conditions: Homo sapiens, DOHH-2;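 note: growth inhibition of human DOHH-2 cells, read out with a cell viability assay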
Description: SANGER: Inhibition of human DOHH-2 cell growth in a cell viability assay.

DU-4475 = type: functional, cell-based, Homo sapiens; conditions: Homo sapiens, DU-4475
Description: SANGER: Inhibition of human DU-4475 cell growth in a cell viability assay.

EKVX = type: functional, cell-based, Homo sapiens; conditions: Homo sapiens, EKVX;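 note: growth inhibition of human EKVX cells, read out with a cell viability assay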
Description: SANGER: Inhibition of human EKVX cell growth in a cell viability assay.

ES3 = type: functional, cell-based, Homo sapiens; conditions: Homo sapiens, ES3;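 note: growth inhibition of ES3 cells, read out with a cell viability assay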
Description: SANGER: Inhibition of human ES3 cell growth in a cell viability assay.

ES4 = type: functional, cell-based, Homo sapiens; conditions: Homo sapiens, ES4;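 note: growth inhibition of human ES4 cells, read out by a cell viability assay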
Description: SANGER: Inhibition of human ES4 cell growth in a cell viability assay.

EW-16 = type: functional, cell-based, Homo sapiens; conditions: Homo sapiens, EW-16;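 note: growth inhibition of human EW-16 cells, read out as cell viability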
Description: SANGER: Inhibition of human EW-16 cell growth in a cell viability assay.

GI-1 = type: functional, cell-based, Homo sapiens; conditions: Homo sapiens, GI-1;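 note: growth inhibition of human GI-1 cells, measured with a cell viability readout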
Description: SANGER: Inhibition of human GI-1 cell growth in a cell viability assay.

HCC2157 = type: functional, cell-based, Homo sapiens; conditions: Homo sapiens, HCC2157;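 note: growth inhibition of the cancer cell line, read out as cell viability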
Description: SANGER: Inhibition of human HCC2157 cell growth in a cell viability assay.

HDLM-2 = type: functional, cell-based, Homo sapiens; conditions: Homo sapiens, HDLM-2;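 note: cell viability assay measuring suppression of HDLM-2 proliferation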
Description: SANGER: Inhibition of human HDLM-2 cell growth in a cell viability assay.

HL-60 = type: functional, cell-based, Homo sapiens; conditions: Homo sapiens, HL-60;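 note: growth inhibition of human HL-60 cells, read out with a cell viability assay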
Description: SANGER: Inhibition of human HL-60 cell growth in a cell viability assay.

HT = type: functional, cell-based, Homo sapiens; conditions: Homo sapiens, HT
Description: SANGER: Inhibition of human HT cell growth in a cell viability assay.

J-RT3-T3-5 = type: functional, cell-based, Homo sapiens; conditions: Homo sapiens, J-RT3-T3-5;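 note: cell viability assay measuring growth inhibition of human J-RT3-T3-5 cells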
Description: SANGER: Inhibition of human J-RT3-T3-5 cell growth in a cell viability assay.

JVM-2 = type: functional, cell-based, Homo sapiens; conditions: Homo sapiens, JVM-2;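 note: growth inhibition of JVM-2 cells determined by a cell viability assay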
Description: SANGER: Inhibition of human JVM-2 cell growth in a cell viability assay.

KARPAS-45 = type: functional, cell-based, Homo sapiens; conditions: Homo sapiens, KARPAS-45;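 note: inhibition of cell line growth, read out through a viability assay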
Description: SANGER: Inhibition of human KARPAS-45 cell growth in a cell viability assay.

KU812 cell line = type: functional, cell-based, Homo sapiens; conditions: Homo sapiens, KU812;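 note: growth inhibition of KU812 cells, read out with a cell viability assay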
Description: SANGER: Inhibition of human KU812 cell growth in a cell viability assay.

KURAMOCHI = type: functional, cell-based, Homo sapiens; conditions: Homo sapiens, KURAMOCHI;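 note: growth inhibition of KURAMOCHI cells, read out with a cell viability assay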
Description: SANGER: Inhibition of human KURAMOCHI cell growth in a cell viability assay.

KY821 = type: functional, cell-based, Homo sapiens; conditions: Homo sapiens, KY821;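 note: growth inhibition of human KY821 cells, read out by a cell viability assay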
Description: SANGER: Inhibition of human KY821 cell growth in a cell viability assay.

LAMA-84 = type: functional, cell-based, Homo sapiens; conditions: Homo sapiens, LAMA-84;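 note: growth inhibition of LAMA-84 cells, read out with a cell viability assay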
Description: SANGER: Inhibition of human LAMA-84 cell growth in a cell viability assay.

LAN-6 = type: functional, cell-based, Homo sapiens; conditions: Homo sapiens, LAN-6;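 note: growth inhibition of LAN-6 cells, determined with a cell viability assay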
Description: SANGER: Inhibition of human LAN-6 cell growth in a cell viability assay.

LB1047-RCC = type: functional, cell-based, Homo sapiens; conditions: Homo sapiens, LB1047-RCC;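 note: inhibition of cell growth, determined with a cell viability assay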
Description: SANGER: Inhibition of human LB1047-RCC cell growth in a cell viability assay.

LB771-HNC = type: functional, cell-based; conditions: Homo sapiens;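 note: growth inhibition of LB771-HNC human cells, read out with a cell viability assay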
Description: SANGER: Inhibition of human LB771-HNC cell growth in a cell viability assay.

LC-2-ad = type: functional, cell-based, Homo sapiens; conditions: Homo sapiens, LC-2-ad;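 note: growth inhibition of human LC-2-ad cells, read out with a cell viability assay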
Description: SANGER: Inhibition of human LC-2-ad cell growth in a cell viability assay.

LNCaP-Clone-FGC = type: functional, cell-based, Homo sapiens; conditions: Homo sapiens, LNCaP-Clone-FGC
Description: SANGER: Inhibition of human LNCaP-Clone-FGC cell growth in a cell viability assay.

LS-411N = type: functional, cell-based, Homo sapiens; conditions: Homo sapiens, LS-411N
LU-134-A = type: functional, cell-based, Homo sapiens; conditions: Homo sapiens, LU-134-A
Description: SANGER: Inhibition of human LU-134-A cell growth in a cell viability assay.

MC116 = type: functional, cell-based, Homo sapiens; conditions: Homo sapiens, MC116;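 note: growth inhibition of MC116 cells, read out with a cell viability assay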
Description: SANGER: Inhibition of human MC116 cell growth in a cell viability assay.

NB10 = type: functional, cell-based, Homo sapiens; conditions: Homo sapiens, NB10;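 note: growth inhibition of NB10 cells, read out by a cell viability assay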
Description: SANGER: Inhibition of human NB10 cell growth in a cell viability assay.

NCI-H1155 = type: functional, cell-based, Homo sapiens; conditions: Homo sapiens, NCI-H1155;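 note: cell growth inhibition measured by a viability assay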
Description: SANGER: Inhibition of human NCI-H1155 cell growth in a cell viability assay.

NCI-H226 = type: functional, cell-based, Homo sapiens; conditions: Homo sapiens, NCI-H226;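 note: cell viability read-out used to gauge growth inhibition of the cells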
Description: SANGER: Inhibition of human NCI-H226 cell growth in a cell viability assay.

NKM-1 = type: functional, cell-based, Homo sapiens; conditions: Homo sapiens, NKM-1;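 note: growth inhibition of NKM-1 cells, read out with a cell viability assay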
Description: SANGER: Inhibition of human NKM-1 cell growth in a cell viability assay.

P30-OHK = type: functional, cell-based, Homo sapiens; conditions: Homo sapiens, P30-OHK;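 note: growth inhibition of the P30-OHK cell line, read out with a cell viability assay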
Description: SANGER: Inhibition of human P30-OHK cell growth in a cell viability assay.

RXF 393 = type: functional, cell-based, Homo sapiens; conditions: Homo sapiens, RXF 393;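 note: growth inhibition of human RXF 393 cells, read out with a cell viability assay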
Description: SANGER: Inhibition of human RXF393 cell growth in a cell viability assay.

SCH = type: functional, cell-based, Homo sapiens; conditions: Homo sapiens, SCH;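 note: growth inhibition of human SCH cells, read out in a cell viability assay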
Description: SANGER: Inhibition of human SCH cell growth in a cell viability assay.

SK-PN-DW = type: functional, cell-based, Homo sapiens; conditions: Homo sapiens, SK-PN-DW;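 note: growth inhibition measured with a viability assay on these cells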
Description: SANGER: Inhibition of human SK-PN-DW cell growth in a cell viability assay.

SK-UT-1 = type: functional, cell-based, Homo sapiens; conditions: Homo sapiens, SK-UT-1;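 note: growth inhibition of SK-UT-1 cells, measured by a cell viability assay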
Description: SANGER: Inhibition of human SK-UT-1 cell growth in a cell viability assay.

SW 954 = type: functional, cell-based, Homo sapiens; conditions: Homo sapiens, SW 954;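 note: growth inhibition of SW954 human cancer cells, read out as cell viability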
Description: SANGER: Inhibition of human SW954 cell growth in a cell viability assay.

TE-1 = type: functional, cell-based, Homo sapiens; conditions: Homo sapiens, TE-1
Description: SANGER: Inhibition of human TE-1 cell growth in a cell viability assay.

A253 cell line = type: functional, cell-based, Homo sapiens; conditions: Homo sapiens, A253;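 note: growth inhibition of A253 cells, read out with a cell viability assay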
Description: SANGER: Inhibition of human A253 cell growth in a cell viability assay.

A4-Fuk = type: functional, cell-based, Homo sapiens; conditions: Homo sapiens, A4-Fuk;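 note: growth inhibition of A4-Fuk cells, read out by a cell viability assay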
Description: SANGER: Inhibition of human A4-Fuk cell growth in a cell viability assay.

A498 = type: functional, cell-based, Homo sapiens; conditions: Homo sapiens, A498;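 note: growth inhibition of human A498 cells, read out with a cell viability assay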
Description: SANGER: Inhibition of human A498 cell growth in a cell viability assay.

ACN = type: functional, cell-based, Homo sapiens; conditions: Homo sapiens, ACN;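 note: growth inhibition of the human ACN cell line, read out via cell viability testing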
Description: SANGER: Inhibition of human ACN cell growth in a cell viability assay.

TE-11 = type: functional, cell-based; conditions: Homo sapiens;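 note: growth inhibition of human TE-11 cells, read out by a cell viability assay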
Description: SANGER: Inhibition of human TE-11 cell growth in a cell viability assay.

TE-12 = type: functional, cell-based, Homo sapiens; conditions: Homo sapiens, TE-12;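 note: growth inhibition of TE-12 cells, read out by a cell viability assay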
Description: SANGER: Inhibition of human TE-12 cell growth in a cell viability assay.

TGBC24TKB = type: functional, cell-based; conditions: Homo sapiens;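 note: growth inhibition of human TGBC24TKB cells, read out with a cell viability assay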
Description: SANGER: Inhibition of human TGBC24TKB cell growth in a cell viability assay.

UACC-257 = type: functional, cell-based, Homo sapiens; conditions: Homo sapiens, UACC-257
Description: SANGER: Inhibition of human UACC-257 cell growth in a cell viability assay.

CAS-1 = type: functional, cell-based, Homo sapiens; conditions: Homo sapiens, CAS-1;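 note: growth inhibition of CAS-1 cells, measured with a cell viability assay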
Description: SANGER: Inhibition of human CAS-1 cell growth in a cell viability assay.

Compound `C=CC(=O)N1CCCC(Nc2nc(Nc3ccc(N(C)C(=O)CC)cc3)nc3[nH]cnc23)C1` (centres undefined) has an IC50 (CTV-1) of over 10.2 µM, an IC50 (DOHH-2) of over 10.2 µM and an IC50 (DU-4475) of over 10.2 µM. The IC50 (EKVX) was over 10.2 µM, the IC50 (ES3) was over 10.2 µM and the IC50 (ES4) was over 10.2 µM. It also gave an IC50 (EW-16) of 2.59 µM, an IC50 (GI-1) of over 10.2 µM and an IC50 (HCC2157) of over 10.2 µM. For the same compound, the IC50 (HDLM-2) was over 10.2 µM, the IC50 (HL-60) was over 10.2 µM and the IC50 (HT) was over 10.2 µM. For the same compound, the IC50 (J-RT3-T3-5) was over 10.2 µM, the IC50 (JVM-2) was over 10.2 µM and the IC50 (KARPAS-45) was over 10.2 µM. It also gave an IC50 (KU812 cell line) of over 10.2 µM, an IC50 (KURAMOCHI) of over 10.2 µM and an IC50 (KY821) of over 10.2 µM. It also gave an IC50 (LAMA-84) of over 10.2 µM, an IC50 (LAN-6) of over 10.2 µM and an IC50 (LB1047-RCC) of over 10.2 µM. It also gave an IC50 (LB771-HNC) of over 10.2 µM, an IC50 (LC-2-ad) of 7.27 µM and an IC50 (LNCaP-Clone-FGC) of over 10.2 µM. The IC50 (LS-411N) was over 10.2 µM, the IC50 (LU-134-A) was over 10.2 µM and the IC50 (MC116) was over 10.2 µM. For the same compound, the IC50 (NB10) was over 10.2 µM, the IC50 (NCI-H1155) was over 10.2 µM and the IC50 (NCI-H226) was over 10.2 µM. It also gave an IC50 (NKM-1) of over 10.2 µM, an IC50 (P30-OHK) of over 10.2 µM and an IC50 (RXF 393) of over 10.2 µM. The IC50 (SCH) was over 10.2 µM, the IC50 (SK-PN-DW) was over 10.2 µM and the IC50 (SK-UT-1) was over 10.2 µM. For the same compound, the IC50 (SW 954) was 2.56 µM, the IC50 (TE-1) was over 10.2 µM and the IC50 (A253 cell line) was over 10.2 µM. The IC50 (A4-Fuk) was over 10.2 µM, the IC50 (A498) was over 10.2 µM and the IC50 (ACN) was over 10.2 µM. The IC50 (TE-11) was over 10.2 µM, the IC50 (TE-12) was 2.35 µM and the IC50 (TGBC24TKB) was over 10.2 µM. The IC50 (UACC-257) was over 10.2 µM and the IC50 (CAS-1) was over 10.2 µM.
`COc1ccc(N(C(=O)Oc2c(C)cccc2C)c2ccnc(Nc3ccc(N4CCN(C)CC4)cc3)n2)c(OC)c1` was tested, and the IC50 (CTV-1) was under 0.02 µM, the IC50 (DOHH-2) was under 0.02 µM and the IC50 (DU-4475) was over 5.12 µM. For the same compound, the IC50 (EKVX) was over 5.12 µM, the IC50 (ES3) was over 5.12 µM and the IC50 (ES4) was over 5.12 µM. It also gave an IC50 (EW-16) of over 5.12 µM, an IC50 (GI-1) of over 5.12 µM and an IC50 (HCC2157) of over 5.12 µM. The IC50 (HDLM-2) was over 5.12 µM, the IC50 (HL-60) was over 5.12 µM and the IC50 (HT) was over 5.12 µM. For the same compound, the IC50 (J-RT3-T3-5) was over 5.12 µM, the IC50 (JVM-2) was over 5.12 µM and the IC50 (KARPAS-45) was over 5.12 µM. The IC50 (KU812 cell line) was over 5.12 µM, the IC50 (KURAMOCHI) was 2.24 µM and the IC50 (KY821) was over 5.12 µM. For the same compound, the IC50 (LAMA-84) was under 0.02 µM, the IC50 (LAN-6) was over 5.12 µM and the IC50 (LB1047-RCC) was 0.0759 µM. For the same compound, the IC50 (LB771-HNC) was over 5.12 µM, the IC50 (LC-2-ad) was 0.0203 µM and the IC50 (LNCaP-Clone-FGC) was over 5.12 µM. For the same compound, the IC50 (LS-411N) was over 5.12 µM, the IC50 (LU-134-A) was over 5.12 µM and the IC50 (MC116) was 2.86 µM. For the same compound, the IC50 (NB10) was over 5.12 µM, the IC50 (NCI-H1155) was over 5.12 µM and the IC50 (NCI-H226) was over 5.12 µM. The IC50 (NKM-1) was over 5.12 µM, the IC50 (P30-OHK) was over 5.12 µM and the IC50 (RXF 393) was 0.106 µM. It also gave an IC50 (SCH) of over 5.12 µM, an IC50 (SK-PN-DW) of over 5.12 µM and an IC50 (SK-UT-1) of over 5.12 µM. It also gave an IC50 (SW 954) of 0.372 µM, an IC50 (TE-1) of over 5.12 µM and an IC50 (A253 cell line) of over 5.12 µM. For the same compound, the IC50 (A4-Fuk) was over 5.12 µM, the IC50 (A498) was 0.189 µM and the IC50 (ACN) was 4.23 µM. For the same compound, the IC50 (TE-11) was over 5.12 µM, the IC50 (TE-12) was 0.888 µM and the IC50 (TGBC24TKB) was 1.04 µM. It also gave an IC50 (UACC-257) of over 5.12 µM and an IC50 (CAS-1) of 4.4 µM.
